Measurements from patent publication US20160031935A1, “SMALL MOLECULE MODULATORS OF PCSK9 AND METHODS OF USE THEREOF” (ADAERATA, LIMITED PARTNERSHIP, priority 2013, published 2016).

Key:
[1] = system: cell surface LDLR activity; experiment: Dil-LDL uptake assay in HepG2 naïve cells; assay type: cell-based, human; settings: for activity at 10 µM: Homo sapiens, 24 h, HepG2 cells, read-out: Dil-LDL uptake (% DMSO Cnt)
Experimental: HepG2 naive cells and HEK293 naive cells were plated in 96-well plates (CellBind black plate with clear bottom (Corning; Cat #3340)) at a density of 25,000 cells/well, in complete media (DMEM high glucose (+sodium pyruvate for HepG2) (Wisent)+10% FBS). After 20 hours, cells were washed for 30 min with serum free DMEM media (100 μl/well), the wash media was removed and replaced with 100 μl/well of incubation media (DMEM high glucose (+sodium pyruvate for HepG2) (Wisent)+0.07% BSA (Sigma-Aldrich)) containing compound at various concentrations ([…]) or DMSO control (0.4% final). Each condition was prepared in triplicates. After 6 hours incubation at 37° C., Dil-LDL (Biomedical Technologies (Cat #BT-904)) was added to the cell media (5 μl) at 5 μg/ml final concentration, and cells returned to tissue culture incubator for another 18 hours (a total of 24 hours incubation with the compounds). After 2 washes (200 μl/well) with ice-cold D-PBS (Wisent) and aspiration of the final wash, plates were scanned (bottom read) on a SpectraMax GeminiEM™ plate reader (Molecular Devices). For each well, raw Dil-LDL uptake was measured as the average fluorescence intensity (RFU) (ex: 520 nm/em: 575 nm, cutoff: 550 nm) of 9 readings in 3 different points in the well. Dil-LDL uptake in each well was corrected for total number of cells by performing a CyQuant™ cell assay (Invitrogen; Cat #C7026). Namely, after recording the Dil fluorescence, the plate was frozen overnight at −80° C. The next day, the plates were thawed at room temperature, the cells lysed according to the manufacturer's protocol, and the number of cells/well was determined by measuring the fluorescence (RFU) of the CyQuant green fluorescent dye bound to the cellular nucleic acids (ex: 485 nm/em: 538 nm, cutoff: 515 nm). For each condition, Dil-RFU was divided by CyQuant-RFU. Corrected dil-LDL uptake is reported as % DMSO control and was obtained from triplicate wells.
The PCSK9 inhibitory compounds were also characterized using a Dil-LDL fluorescent uptake assay as described in Poirier et al., J. Biol. Chem. 284: 28856-28864, 2009. The method entails the fluorescence measurement of the Dil-LDL cellular incorporation via LDLR internalization (a measurement of cell surface LDLR activity) in human hepatocyte derived HuH7 or HepG2 cell lines, or human embryonic HEK293 cells, in the presence or absence of compounds.
HepG2 naïve cells and HEK293 naïve cells were plated in 96-well plates (CellBind™ black plate with clear bottom (Corning; Cat #3340)). At 20 h post-seeding, cells were incubated in the absence (DMSO or negative control) or in the presence of different concentrations of compounds. Each condition was prepared in triplicates. After 6 hours incubation, Dil-LDL (Biomedical Technologies (Cat #BT-904)) was added to the cell media, and cells returned to tissue culture incubator for another 18 hours. Plates were scanned (bottom read) on a SpectraMax GeminiEM™ plate reader (Molecular Devices). For each well, raw Dil-LDL uptake was measured as the average fluorescence intensity (RFU) (ex: 520 nm/em: 575 nm, cutoff: 550 nm) of 9 readings in 3 different points in the well. Dil-LDL uptake in each well was corrected for total number of cells by performing a CyQuant™ cell assay (Invitrogen, Cat #C7026) according to the manufacturer's instructions. Corrected Dil-LDL uptake is reported as a % of DMSO control and was obtained from triplicate wells.

[2] = system: cell surface LDLR; experiment: FACS assay of LDLR at the HepG2 cell surface; assay type: cell-based, human; settings: 10 μM, 24 h; LDLR positive HepG2 cells
Experimental: The ability of PCSK9 inhibitory compounds to prevent the activity of PCSK9 on LDLR at the cell surface was also measured by using flow cytometry analyses as described in Benjannet S. et al. J. Biol. Chem. 285: 40965-40978, 2010. The level of LDLR at the HepG2 cell surface was measured by using anti human LDLR antibody (1:100, mAb-C7, Santa Cruz Biotechnology) and a secondary Alexa Fluor 647 donkey anti-mouse (Molecular Probes) antibody. Viable cells (PI-negative) were then analyzed by FACS for both PI and Alexa Fluor 647 using the FACS BD LSR (BD Biosciences). Cell surface LDLR was reported relative to control (untreated cells). The inhibition of the PCSK9 function in these assays was detected by an increased number of positive cells which correlated with an increased expression of LDLR at the cell surface.
More particularly, Human hepatoblastoma HepG2 cells (4×10^5 cells/well) were seeded in 12 well plates (Greiner BioOne) in complete media and cultured for 20 hours, at 37° C., followed by a 1 hour wash in serum free media at 37° C. Next, the wash media was removed and the cells were incubated overnight (24 hours) with 0.9 ml/well incubation media containing compounds at 10 uM or DMSO control (0.4% final). After one rinse with buffer A followed by another rinse with EDTA solution (2.5 mM EDTA-2Na), the cells were detached by incubation in the presence of fresh EDTA solution (1 ml) at 37° C. for 20 minutes. All the steps following cell detachment were conducted on ice or 4° C. To terminate the detachment, the cells were transferred in a 15 ml tube containing 3 ml of buffer A and centrifuged immediately for 5 minutes at 900 rpm (100 g) (4° C.). The cells were then resuspended in 500 ul buffer A together with 1:250 human LDLR antibody and incubated on ice for 10 minutes. Cells were washed once with 5 ml buffer A, centrifuged for 5 minutes, resuspended in 500 ul buffer A containing 1:500 Alexa Fluor 647 secondary antibody and incubated on ice for 5 min. After the staining, cells were washed once with 5 ml buffer A, centrifuged for 5 minutes and resuspended in 300 ul buffer A containing 1.67 ug/ml propidium iodide. A fixed number (2,000 cells) of viable cells (propidium iodide negative) were then analyzed by FACS for Alexa Fluor 647 (cell surface LDLR) using a FACS-CyAn ADP flow cytometer (Beckman Coulter (DAKO)) and Summit software (Summit Software Inc.).
Human HepG2 cell line: ATCC, HB-8065 Seeding media: complete media—EMEM (high glucose+sodium pyruvate) (Wisent)+10% FBS Wash media: serum free media—EMEM (high glucose+sodium pyruvate) (Wisent) Incubation media with compounds: EMEM (high glucose+sodium pyruvate) (Wisent)+0.07% BSA (Sigma-Aldrich) BufferA: 1×D-PBS without calcium and magnesium (Wisent 311-425-CL)+0.5% BSA (Sigma A7409-50ml)+[…] Glucose (Wisent 609-036-EL). Primary antibody: human LDLR antibody, monoclonal Mouse IgG1 clone #472413 (MAB2148, R&D Systems) Secondary antibody: Alexa Fluor® 647 goat anti-mouse IgG (H+L)*2 mg/mL*(A21235, Molecular Probes) Propidium iodide: 1 mg/ml solution (P4864, Sigma)

## CC(C)[C@H](NC(=O)c1ccc(-c2ccccc2)cc1)C(=O)N[C@H](Cc1ccccc1)C(=O)N[C@@H](C)C(=O)NC(CCC(N)=O)C(O)C(F)(F)F (stereo partly drawn) [Example 70, N-((2S)-1-(((2R)-1-(((2S)-1-((6-Amino-1,1,1-trifluoro-2-hydroxy-6-oxohexan-3-yl)amino)-1-oxopropan-2-yl)amino)-1-oxo-3-phenylpropan-2-yl)amino)-3-methyl-1-oxobutan-2-yl)-[1,1′-biphenyl]-4-carboxamide]
[1]
  activity at 10 µM: 224 ± 47%
[2]
  FACS-LDLR (% DMSO Cnt): 118 ± 18 % DMSO Cnt

## CSCC[C@H](NC(=O)c1ccc(-c2ccccc2)cc1)C(=O)N[C@@H](Cc1ccccc1)C(=O)N[C@@H](C)C(=O)NC(CCC(N)=O)C(O)C(F)(F)F (stereo partly drawn) [Example 75, N-((5S,8S,11S)-17-amino-8-benzyl-11-methyl-6,9,12,17-tetraoxo-14-(2,2,2-trifluoro-1-hydroxyethyl)-2-thia-7,10,13-triazaheptadecan-5-yl)-[1,1′-biphenyl]-4-carboxamide]
[1]
  activity at 10 µM: 172 ± 48%
[2]
  FACS-LDLR (% DMSO Cnt): 174 ± 41 % DMSO Cnt

## CCCCCCCCCC(=O)N[C@H](C(=O)N[C@@H](Cc1ccccc1)C(=O)N[C@@H](Cc1ccccc1)C(=O)NC(CCC(N)=O)C(O)C(F)(F)F)C(C)C (stereo partly drawn) [Example 59, N-((2S)-1-(((2S)-1-(((2S)-1-((6-Amino-1,1,1-trifluoro-2-hydroxy-6-oxohexan-3-yl)amino)-1-oxo-3-phenylpropan-2-yl)amino)-1-oxo-3-phenylpropan-2-yl)amino)-3-methyl-1-oxobutan-2-yl)decanamide]
[1]
  activity at 10 µM: 253 ± 75%
[2]
  FACS-LDLR (% DMSO Cnt): 265 ± 35 % DMSO Cnt

## CC(C)[C@H](NC(=O)c1ccc(-c2ccccc2)cc1)C(=O)N[C@@H](Cc1ccccc1)C(=O)NC1(C(=O)N[C@@H](CCC(N)=O)C(O)C(F)(F)F)CCC1 (single isomer, unassigned) [Example 66]
[1]
  activity at 10 µM: 237 ± 59%
[2]
  FACS-LDLR (% DMSO Cnt): 122 ± 11 % DMSO Cnt

## CC(C)[C@H](NC(=O)c1ccc(C2(C(F)(F)F)N=N2)cc1)C(=O)N[C@@H](Cc1ccccc1)C(=O)N[C@@H](C)C(=O)NC(CCC(N)=O)C(O)C(F)(F)F (stereo partly drawn) [Example 29, N-((2S)-1-(((2S)-1-(((2S)-1-((6-Amino-1,1,1-trifluoro-2-hydroxy-6-oxohexan-3-yl)amino)-1-oxopropan-2-yl)amino)-1-oxo-3-phenylpropan-2-yl)amino)-3-methyl-1-oxobutan-2-yl)-4-(3-(trifluoromethyl)-3H-diazirin-3-yl)benzamide]
[1]
  activity at 10 µM: 207 ± 21%
[2]
  FACS-LDLR (% DMSO Cnt): 233 ± 50 % DMSO Cnt

## CCCCCCCCCC(=O)N[C@H](C(=O)N[C@@H](Cc1ccccc1)C(=O)N[C@H](C)C(=O)N[C@@H](CCC(N)=O)C(O)C(F)(F)F)C(C)C (single isomer, unassigned) [Example 60]
[1]
  activity at 10 µM: 224 ± 43%
[2]
  FACS-LDLR (% DMSO Cnt): 138 ± 8 % DMSO Cnt

## CC(C)[C@H](NC(=O)c1ccc(-c2ccc(F)cc2)cc1)C(=O)N[C@@H](Cc1ccccc1)C(=O)N[C@@H](C)C(=O)NC(CCC(N)=O)C(O)C(F)(F)F (stereo partly drawn) [Example 52, N-((2S)-1-(((2S)-1-(((2S)-1-((6-Amino-1,1,1-trifluoro-2-hydroxy-6-oxohexan-3-yl)amino)-1-oxopropan-2-yl)amino)-1-oxo-3-phenylpropan-2-yl)amino)-3-methyl-1-oxobutan-2-yl)-4′-fluoro-[1,1′-biphenyl]-4-carboxamide]
[1]
  activity at 10 µM: 254 ± 71%
[2]
  FACS-LDLR (% DMSO Cnt): 138 ± 20 % DMSO Cnt

## CCCCCCCCCC(=O)N[C@H](C(=O)N[C@@H](Cc1ccccc1)C(=O)N[C@H](C(=O)NC(CCC(N)=O)C(O)C(F)(F)F)C(C)C)C(C)C (stereo partly drawn) [Example 58, N-((2S)-1-(((2S)-1-(((2S)-1-((6-amino-1,1,1-trifluoro-2-hydroxy-6-oxohexan-3-yl)amino)-3-methyl-1-oxobutan-2-yl)amino)-1-oxo-3-phenylpropan-2-yl)amino)-3-methyl-1-oxobutan-2-yl)decanamide]
[1]
  activity at 10 µM: 261 ± 48%
[2]
  FACS-LDLR (% DMSO Cnt): 166 ± 28 % DMSO Cnt

## CC(C)[C@H](NC(=O)c1ccc(-c2ccccc2)cc1)C(=O)N[C@@H](Cc1ccccc1)C(=O)N[C@@H](C)C(=O)NC(CCC(N)=O)C(O)C(F)(F)F (stereo partly drawn) [Example 24, N-((2S)-1-(((2S)-1-(((2S)-1-((6-Amino-1,1,1-trifluoro-2-hydroxy-6-oxohexan-3-yl)amino)-1-oxopropan-2-yl)amino)-1-oxo-3-phenylpropan-2-yl)amino)-3-methyl-1-oxobutan-2-yl)-[1,1′-biphenyl]-4-carboxamide]
[1]; 33.3 μM, HepG2 naïve cells
  Dil-LDL uptake (FIG. 5A, in words): increase in the Dil-LDL uptake
[1]
  activity at 10 µM: 224 ± 33%
[2]
  FACS-LDLR (% DMSO Cnt): 116 ± 5 % DMSO Cnt
